6 compounds from patent publication US8921552B2, “Benzothiazole hybrids useful as anticancer agents and process for the preparation thereof” (Council of Scientific & Industrial Research, priority 2011, dated 2014) can be followed below.

The structures appear in SMILES notation.

Experiment [1] relates to IGR-OV-1. Briefly: In vitro cytotoxicity, SRB assay, ovarian cancer cell line IGR-OV-1. In kind it is cell-based, human. As to conditions: IGR-OV-1 (ovarian); for inhibition at 10 µM: 48 h exposure. The text has this: (§1) The benzothiazole hybrids has been tested against seven human tumor cell lines derived from six cancer types (lung cancer, colon cancer, CNS cancer, ovarian cancer, prostate cancer and breast cancer). For these compounds results are expressed as percent of cell growth inhibition relative to that of untreated control cells.

Experiment [2] concerns SF-295. Briefly: In vitro cytotoxicity, SRB assay, CNS cancer cell line SF-295. As to conditions: SF-295 (CNS); for inhibition at 10 µM: 48 h exposure. In kind it is cell-based, human.
Source text: as §1
Background: In SRB staining, fixed cells bind dye roughly in proportion to their protein.

For experiment [3], the system named is A-549. Description: In vitro cytotoxicity, SRB assay, lung cancer cell line A-549. In kind it is cell-based, human. As to conditions: A-549 (lung); for inhibition at 10 µM: 48 h exposure.
Source text: as §1

Experiment [4] deals with PC-3. Description: In vitro cytotoxicity, SRB assay, prostate cancer cell line PC-3. The class given is cell-based, human. The conditions noted are these: PC-3 (prostate); for inhibition at 10 µM: 48 h exposure.
Source text: as §1

Experiment [5] deals with Colo-205. Description: In vitro cytotoxicity, SRB assay, colon cancer cell line Colo-205. The conditions noted are these: Colo-205 (colon); for inhibition at 10 µM: 48 h exposure. In kind it is cell-based, human.
Source text: as §1

The test system of experiment [6] is MCF7. Description: In vitro cytotoxicity, SRB assay, breast cancer cell line MCF7. In kind it is cell-based, human. The conditions noted are these: for inhibition at 10 µM: 48 h exposure.
Source text: as §1

Experiment [7] deals with human tumor cell lines. Briefly: In vitro anticancer activity, panel of seven human tumor cell lines (SRB assay). As to conditions: Homo sapiens; range over the cell lines, 10 μM, exposure period of at least 48 hrs; read-out: percentage growth inhibition for invitro anticancer activity. The class given is cell-based. Here is the method:
(§2) The benzothiazole hybrids has been tested against seven human tumor cell lines derived from six cancer types (lung cancer, colon cancer, CNS cancer, ovarian cancer, prostate cancer and breast cancer). For these compounds results are expressed as percent of cell growth inhibition relative to that of untreated control cells. A protocol of 48 h continuous drug exposure has been used, and a sulforhodamine B (SRB) protein assay was used to estimate cell viability or growth.
(§3) The compounds 9b, 9h, 9m, 9r, 15c, 15h, 15m, 15r, 10b, 10h, 10m, 10r, 16c, 16h and 16m were evaluated for in vitro anticancer activity against seven human tumor cells derived from six cancer types (lung cancer, colon cancer, CNS cancer, ovarian cancer, prostate cancer and breast cancer) at concentration of 10 μM and the results are shown in Table 1.

Experiment [8] has as its system SW-620. Briefly: In vitro cytotoxicity, SRB assay, colon cancer cell line SW-620. In kind it is cell-based. As to conditions: Homo sapiens, SW-620 (colon), 48 h exposure, read-out: % of growth inhibition. The procedure:
as §2, §3

The test system of experiment [9] is SW-620. The experiment is described as above. In kind it is cell-based, human. As to conditions: SW-620 (colon), reference drug at 1 μM.
The mark [10] stands for this setting: Homo sapiens, reference drug at 1 μM, read-out: % of growth inhibition.
Where [11] appears, read: Homo sapiens, IGROV-1, read-out: % of growth inhibition.
Where [12] appears, read: Homo sapiens, read-out: % of growth inhibition.
Where [13] appears, read: Homo sapiens, A549, read-out: % of growth inhibition.

`CC(=O)O[C@H]1C(=O)[C@@]2(C)[C@H]([C@H](OC(=O)c3ccccc3)[C@]3(O)C[C@H](OC(=O)[C@H](O)[C@@H](NC(=O)c4ccccc4)c4ccccc4)C(C)=C1C3(C)C)[C@]1(OC(C)=O)CO[C@@H]1C[C@@H]2O` [Paclitaxel, reference compound]: the inhibition at 1 µM came to 44% in experiment [1] (Homo sapiens, IGROV-1, reference drug at 1 μM, read-out: % of growth inhibition); 59% in [2] (setting [10]); 62% in [3] (Homo sapiens, A549, reference drug at 1 μM, read-out: % of growth inhibition); 35% in experiment [4] (setting [10]); 95% in experiment [5] (setting [10]); 59% in experiment [6] (setting [10]).
For `COc1ccc(/C=C\c2cc(OC)c(OC)c(OC)c2)cc1OCCCCOc1cc(-c2nc3ccccc3s2)ccc1OC` [Compound 9m, 2-[4-methoxy-3-(4-{2-methoxy-5-[(Z)-2-(3,4,5-trimethoxyphenyl)-1-ethenyl]phenoxy}butoxy)phenyl]-1,3-benzothiazole], the inhibition at 10 µM in experiment [7] was 1 to 100%; in [1] (setting [11]), 58%; in [2] (setting [12]), 44%; in experiment [3] (setting [13]), 73%; in [4] (setting [12]), 68%; in experiment [5] (setting [12]), 70%. In addition, the inhibition at 10 µM in [6] (setting [12]) is 64%.
For the compound `COc1cc(-c2nc3ccccc3s2)ccc1OCCCOc1cc(/C=C\c2cc(OC)c(OC)c(OC)c2)ccc1OC` [Compound 9b, 2-[3-methoxy-4-(3-{2-methoxy-5-[(Z)-2-(3,4,5-trimethoxyphenyl)-1-ethenyl]phenoxy}propoxy)phenyl]-1,3-benzothiazole], the inhibition at 10 µM in [7] is 1 to 100%; in experiment [1] (setting [11]), 54%; in [2] (setting [12]) it was 53%; in [3] (setting [13]), 69%; in experiment [4] (setting [12]) it was 78%; in experiment [5] (setting [12]) it was 16%. The inhibition at 10 µM in experiment [6] (setting [12]) came out at 57%.
With `COc1ccc(/C=C\c2cc(OC)c(OC)c(OC)c2)cc1OCCCCOc1ccc(-c2nc3ccccc3s2)cc1` [Compound 9h, 2-[4-(4-{2-methoxy-5-[(Z)-2-(3,4,5-trimethoxyphenyl)-1-ethenyl]phenoxy}butoxy)phenyl]-1,3-benzothiazole], the inhibition at 10 µM in experiment [7] is 1 to 100%; in [1] (setting [11]), 54%; in experiment [2] (setting [12]) it was 34%; in [3] (setting [13]) it was 63%; in [4] (setting [12]), 65%; in experiment [5] (setting [12]), 15%. Moreover, the inhibition at 10 µM in [6] (setting [12]) is 64%.
Turning to `O=c1[nH]cc(F)c(=O)[nH]1` [5-Fluoro uracil, reference compound], the inhibition at 10 µM in experiment [1] (setting [11]) worked out at 47%; in experiment [8] it was 41%; in experiment [2] (setting [12]), 9%; in experiment [3] (setting [13]), 64%; in [4] (setting [12]) it was 29%; in experiment [5] (setting [12]) it was 55%. In addition, the inhibition at 10 µM in experiment [6] (setting [12]) stood at 66%.
As to `COc1cccc2c1C(=O)c1c(O)c3c(c(O)c1C2=O)C[C@@](O)(C(=O)CO)C[C@@H]3O[C@H]1C[C@H](N)[C@H](O)[C@H](C)O1` [Adriyamycin, reference compound], the “% of growth inhibition” value is given as 21% in experiment [9]; 78% in experiment [1] (reference drug at 1 μM); 55% in [2] (reference drug at 1 μM); 95% in [3] (reference drug at 1 μM); 55% in experiment [4] (reference drug at 1 μM); 77% in experiment [5] (reference drug at 1 μM). The “% of growth inhibition” value in [6] (reference drug at 1 μM) turned out to be 69%.

Broadly, the inhibition is the percentage by which the read-out fell short of the control.
